Assays:
[1] = system: rabbit intraocular pressure; experiment: Rabbit intraocular pressure reduction enhancing action, combination use (Test Example 6-1); type: in vivo, Japanese white rabbit; details: 50 μL, difference of left and right eyes, 2, 4 and 6 hours
Method: However, the effect is not limited to the 19-1 compound, and the ophthalmic solution concentration of the 19-1 compound is not limited to those used in this test example. Moreover, as for the test compound used for combination use, similar effect can be obtained also with the compounds of the present invention represented with the example numbers mentioned in Test Example 2.
As a test compound, the 19-1 compound was dissolved in physiological saline, and the solution was neutralized by addition of sodium hydroxide (pH 7.0 to 8.0) to prepare a 0.01 weight % aqueous solution (19-1 compound aqueous solution). As the drugs for combination use, isopropyl unoprostone (trade name: Rescula, Santen Pharmaceutical) was used as a prostaglandin-related drug, and brinzolamide hydrochloride (trade name: Azopt, Alcon Japan) was used as […], as the marketed formulations as they were.
A Japanese white rabbit having a body weight of about 2 kg was placed in a positioner and naturalized for one week before the experiment. An opthalmologic local anesthesant (Benoxil) was administered to both eyes, and then intraocular pressure before instillation was measured by using a tonometer (Classic 30, Solan). A test aqueous solution or the drug for combination use was administered to the left eye, and the right eye was not treated (control eye). The test groups consisted of (1) control group, (2) group instilled only with the 19-1 compound aqueous solution (single drug group 1), (3) group instilled only with the drug for combination use (single drug group 2), and (4) group instilled with the drug for combination use and the 19-1 compound aqueous solution (combination use group), and six rabbits were used for each group. As for the rabbits of these groups, 50 μL of physiological saline was first instilled to the control group, single drug group 1, and single drug group 2, and the drug for combination use was first instilled in the same volume to the combination use group. […] The intraocular pressure thereafter was measured for each group 2, 4 and 6 hours after the second administration of the test compound, and the difference of the measured values for the left and right eyes at each measurement time was considered an intraocular pressure reduction value of each group. The largest difference of the intraocular pressure values for the left and right eyes among those of the measured values of the measurement times was considered the maximum intraocular pressure reduction value (max ΔIOP) of each drug group.

[2] = system: rabbit intraocular pressure; experiment: Rabbit intraocular pressure reduction enhancing action, combination with timolol maleate (Test Example 6-2); type: in vivo, Japanese white rabbit; details: 0.01 weight % 19-1 compound aqueous solution and/or timolol maleate (Timoptol), 50 μL; difference relative to the control group, 1, 2 and 4 hours
Method: As a test compound, the 19-1 compound was dissolved in physiological saline, and the solution was neutralized by addition of sodium hydroxide (pH 7.0 to 8.0) to prepare a 0.01 weight % aqueous solution (19-1 compound aqueous solution). As a drug for combination use, timolol maleate (trade name: Timoptol, Santen Pharmaceutical) was used as an adrenergic receptor β blocker, as the marketed formulation as it was.
A Japanese white rabbit having a body weight of about 2 kg was placed in a positioner and naturalized for one week before the experiment. An opthalmologic local anesthesant (Benoxil) was administered to both eyes, and then intraocular pressure before instillation was measured by using a tonometer (Classic 30, Solan). […] The intraocular pressure thereafter was measured for each group 1, 2 and 4 hours after the second administration of the test compound, and the difference of the measured values at each measurement time for the each group and the control group was considered an intraocular pressure reduction value of each group. The largest difference of the intraocular pressure values relative to the control group among those of the measured values of the measurement times was considered the maximum intraocular pressure reduction value (max ΔIOP) of each drug group.

[3] = system: monkey intraocular pressure; experiment: Intraocular pressure reduction enhancing action in monkey (Test Example 7); type: in vivo; details: cynomolgus monkey
Method: Moreover, as for the test compound used for combination use, similar effect can be obtained also with the compounds of the present invention represented with the example numbers mentioned in Test Example 2. The test is performed by using cynomolgus monkeys sufficiently naturalized for the operation of fixation on a monkey chair and ophathalmotonometry.
As the test compound, the 19-1 compound is dissolved in physiological saline, and the solution is neutralized by addition of sodium hydroxide (pH 7.0 to 8.0) to prepare a 0.01 weight % aqueous solution (19-1 compound aqueous solution). As a drug for combination use, latanoprost (trade name: Xalatan, Pfizer) is used as the marketed formulation per se. The test aqueous solution or the drug for combination use is instilled to the left eye, and the right eye is not treated (control eye). […] After initial intraocular pressure values of the monkeys are measured for each group, 30 μL of physiological saline is instilled to the control group, single drug group 1, and single drug group 2, and latanoprost is instilled in the same volume to the combination use group. […] Then, the intraocular pressure is measured over time for each group.

For `N[C@H]1CCN(S(=O)(=O)c2cccc3cncc(Cl)c23)C1` [Example 19-1, (S)-3-Amino-1-(4-chloro-5-isoquinolinesulfonyl)pyrrolidine], the “Max ΔIOP (maximum intraocular pressure reduction value), Table 2” value ([1]; 0.01 weight % 19-1 compound aqueous solution and/or brinzolamide hydrochloride (Azopt)) was 4.3 mmHg, the “Max ΔIOP (maximum intraocular pressure reduction value), Table 3” value ([1]; 0.01 weight % 19-1 compound aqueous solution and/or isopropyl unoprostone (Rescula)) was 4.3 mmHg and the “Max ΔIOP (maximum intraocular pressure reduction value), Table 4” value [2] was 4.1 mmHg. For the same compound, the “intraocular pressure reducing action in the single drug group 1” value ([3]; 0.01 weight % aqueous solution, 30 μL) was “exceeding that of the control group” and the “intraocular pressure reducing action in the combination use group” value ([3]; latanoprost (Xalatan) 30 μL, 5 minutes later 19-1 compound aqueous solution 30 μL) was “exceeding those of both the single drug group 1 and single drug group 2”.

Source: patent publication US7618984B2, “Sulfonamide compound” (Asahi Kasei Pharma Corporation, priority 2005, dated 2009)
